According to publication PMC9897788, “Design, synthesis and cytotoxic evaluation of novel bis-thiazole derivatives as preferential Pim1 kinase inhibitors with in vivo and in silico study” (Journal of Enzyme Inhibition and Medicinal Chemistry, 2023):

Assays:
Test in all cases: NCI 60 cell one-dose screening (SRB)
Format in all cases: cell-based
ACHN = settings: Homo sapiens, Renal Cancer, single dose 10 µM, 48 h, read-out: Percentage of cellular growth inhibition
Method: (§1) The 60 cancerous cell panel screening was performed following the Developmental Therapeutics Program (DTP) of the National Cancer Institute (NIH-NCI), USA. A single dose of 10 µM was used to perform the screening at 48 h incubation and the results were achieved as cancerous cell growth percentage relative to the no-drug control that was converted to an inhibition percentage by subtracting from 100.The cancerous cell lines were grown in RPMI 1640 medium containing 5% foetal bovine serum and 2 mM L-glutamine at 37 °C, 5% CO2, 95% air and 100% relative humidity for 24 h prior to addition of the tested compounds. After 24 h, two plates of each cell line were fixed in situ with TCA to represent a measurement of the cell population for each cell line at the time of drug addition (Tz). Compounds were dissolved in DMSO at 400-fold the desired final maximum test concentration and stored frozen prior to use. At the time of drug addition, an aliquot of frozen concentrate was thawed and diluted to twice the desired final maximum test concentration with complete medium containing 50 µg/mL gentamicin. Aliquots of 100 µL of the compounds dilution was added to the appropriate micro titre wells already containing 100 µL of medium, resulting in the required final drug concentrations of 10 µM. Following compounds addition, the plates were incubated for an additional 48 h at 37 °C, 5% CO2, 95% air, and 100% relative humidity. For adherent cells, the assay was terminated by the addition of cold TCA. Cells were fixed in situ by the gentle addition of 50 µL of cold 50% (w/v) TCA (final concentration, 10% TCA) and incubated for 60 min at 4 °C. The supernatant was discarded, and the plates were washed five times with tap water and air dried. Sulphorhodamine B (SRB) solution (100 µL) at 0.4% (w/v) in 1% acetic acid is added to each well, and plates are incubated for 10 min at room temperature. After staining, unbound dye was removed by washing five times with 1% acetic acid and the plates were air dried. Bound stain was subsequently solubilised with 10 mM trizma base, and the absorbance was read on an automated plate reader at a wavelength of 515 nm. For suspension cells, the methodology was the same except that the assay was terminated by fixing settled cells at the bottom of the wells by gently adding 50 µL of 80% TCA (final concentration, 16% TCA). Using the seven absorbance measurements [time zero, (Tz), control growth, I, and test growth in the presence of drug at the five concentration levels (Ti)], the percentage growth was calculated as: [(Ti−Tz)/(C−Tz)]×100 for concentrations for which Ti>/=Tz [(Ti−Tz)/Tz]×100 for concentrations for which Ti<Tz.

BT-549 = settings: Homo sapiens; BT-549, Breast Cancer; single dose 10 µM, 48 h; read-out: Percentage of cellular growth inhibition
Method: as §1

CCRF-CEM = settings: Homo sapiens, Leukemia, single dose 10 µM, 48 h, read-out: Percentage of cellular growth inhibition
Method: as §1

COLO 205 = settings: Homo sapiens; COLO 205, Colon Cancer; single dose 10 µM, 48 h; read-out: Percentage of cellular growth inhibition
Method: as §1

HCT-15 = settings: Homo sapiens; HCT-15, Colon Cancer; single dose 10 µM, 48 h; read-out: Percentage of cellular growth inhibition
Method: as §1

HL-60(TB) = settings: Homo sapiens, Leukemia, single dose 10 µM, 48 h, read-out: Percentage of cellular growth inhibition
Method: as §1

HT29 = settings: Homo sapiens, HT-29; HT29, Colon Cancer; single dose 10 µM, 48 h; read-out: Percentage of cellular growth inhibition
Method: as §1

IGROV1 = settings: Homo sapiens, IGROV-1; IGROV1, Ovarian Cancer; single dose 10 µM, 48 h; read-out: Percentage of cellular growth inhibition
Method: as §1

K-562 = settings: Homo sapiens, K562; K-562, Leukemia; single dose 10 µM, 48 h; read-out: Percentage of cellular growth inhibition
Method: as §1

MDA-MB-468 = settings: Homo sapiens; MDA-MB-468, Breast Cancer; single dose 10 µM, 48 h; read-out: Percentage of cellular growth inhibition
Method: as §1

NCI-H322M = settings: Homo sapiens, Non-Small Cell Lung Cancer, single dose 10 µM, 48 h, read-out: Percentage of cellular growth inhibition
Method: as §1

NCI-H460 = settings: Homo sapiens; NCI-H460, Non-Small Cell Lung Cancer; single dose 10 µM, 48 h; read-out: Percentage of cellular growth inhibition
Method: as §1

NCI/ADR-RES = settings: Homo sapiens, Ovarian Cancer, single dose 10 µM, 48 h, read-out: Percentage of cellular growth inhibition
Method: as §1

OVCAR-4 = settings: Homo sapiens; OVCAR-4, Ovarian Cancer; single dose 10 µM, 48 h; read-out: Percentage of cellular growth inhibition
Method: as §1

OVCAR-8 = settings: Homo sapiens; OVCAR-8, Ovarian Cancer; single dose 10 µM, 48 h; read-out: Percentage of cellular growth inhibition
Method: as §1

SF-539 = settings: Homo sapiens; SF-539, CNS Cancer; single dose 10 µM, 48 h; read-out: Percentage of cellular growth inhibition
Method: as §1

SK-MEL-28 = settings: Homo sapiens; SK-MEL-28, Melanoma; single dose 10 µM, 48 h; read-out: Percentage of cellular growth inhibition
Method: as §1

SN12C = settings: Homo sapiens, Renal Cancer, single dose 10 µM, 48 h, read-out: Percentage of cellular growth inhibition
Method: as §1

SNB-19 = settings: Homo sapiens; SNB-19, CNS Cancer; single dose 10 µM, 48 h; read-out: Percentage of cellular growth inhibition
Method: as §1

TK-10 = settings: Homo sapiens; TK-10, Renal Cancer; single dose 10 µM, 48 h; read-out: Percentage of cellular growth inhibition
Method: as §1

UACC-62 = settings: Homo sapiens; UACC-62, Melanoma; single dose 10 µM, 48 h; read-out: Percentage of cellular growth inhibition
Method: as §1

For `Cc1csc(Nc2cccc(Nc3nc(C)cs3)c2)n1` [3a, N^1,N^3-bis(4-methylthiazol-2-yl)benzene-1,3-diamine], the inhibition at 10 µM (ACHN) was 20.7%, the inhibition at 10 µM (BT-549) was -24.4% and the inhibition at 10 µM (CCRF-CEM) was 1.5%. For the same compound, the inhibition at 10 µM (COLO 205) was -3.8%, the inhibition at 10 µM (HCT-15) was 7.3% and the inhibition at 10 µM (HL-60(TB)) was 18.2%. For the same compound, the inhibition at 10 µM (HT29) was -6.8%, the inhibition at 10 µM (IGROV1) was 7.9% and the inhibition at 10 µM (K-562) was 17.1%. It also gave an inhibition at 10 µM (MDA-MB-468) of 15.9%, an inhibition at 10 µM (NCI-H322M) of 4.9% and an inhibition at 10 µM (NCI-H460) of 1.6%. The inhibition at 10 µM (NCI/ADR-RES) was 20.1%, the inhibition at 10 µM (OVCAR-4) was 11.8% and the inhibition at 10 µM (OVCAR-8) was 21.2%. For the same compound, the inhibition at 10 µM (SF-539) was 7.9%, the inhibition at 10 µM (SK-MEL-28) was 10.4% and the inhibition at 10 µM (SN12C) was 13.8%. For the same compound, the inhibition at 10 µM (SNB-19) was 1%, the inhibition at 10 µM (TK-10) was -35% and the inhibition at 10 µM (UACC-62) was 22.3%.
In the case of `Clc1ccc(-c2cs/c(=N\c3ccccc3)n2-c2cccc(-n3c(-c4ccc(Cl)cc4)cs/c3=N\c3ccccc3)c2)cc1` [8c, N,N’-(3,3’-(1,3-phenylene)bis(4–(4-chlorophenyl)thiazole-3(3H)-yl-2(3H)-ylidene))dianiline], the inhibition at 10 µM (ACHN) is reported as -1.5%, the inhibition at 10 µM (BT-549) is reported as -15.5% and the inhibition at 10 µM (CCRF-CEM) is reported as 32.6%. For the same compound, the inhibition at 10 µM (COLO 205) was 17.2%, the inhibition at 10 µM (HCT-15) was -1.3% and the inhibition at 10 µM (HL-60(TB)) was 41.8%. For the same compound, the inhibition at 10 µM (HT29) was 12.4%, the inhibition at 10 µM (IGROV1) was -0.4% and the inhibition at 10 µM (K-562) was 11.7%. The inhibition at 10 µM (MDA-MB-468) was 35.4%, the inhibition at 10 µM (NCI-H322M) was -1.2% and the inhibition at 10 µM (NCI-H460) was 0.1%. It also gave an inhibition at 10 µM (NCI/ADR-RES) of 0.5%, an inhibition at 10 µM (OVCAR-4) of 12% and an inhibition at 10 µM (OVCAR-8) of 7.9%. It also gave an inhibition at 10 µM (SF-539) of -3%, an inhibition at 10 µM (SK-MEL-28) of -1% and an inhibition at 10 µM (SN12C) of 2.3%. It also gave an inhibition at 10 µM (SNB-19) of 3.8%, an inhibition at 10 µM (TK-10) of -14.1% and an inhibition at 10 µM (UACC-62) of 10.5%.
In the case of `CCOC(=O)c1sc(Nc2cccc(Nc3nc(C)c(C(=O)OCC)s3)c2)nc1C` [3c, Diethyl 2,2’-(1,3-phenylenebis(azanediyl))bis(4-methylthiazole-5-carboxylate)], the inhibition at 10 µM (ACHN) is reported as 24.6%, the inhibition at 10 µM (BT-549) is reported as 26.3% and the inhibition at 10 µM (CCRF-CEM) is reported as 11%. For the same compound, the inhibition at 10 µM (COLO 205) was 12.8%, the inhibition at 10 µM (HCT-15) was 20.9% and the inhibition at 10 µM (HL-60(TB)) was 22.7%. The inhibition at 10 µM (HT29) was -4.7%, the inhibition at 10 µM (IGROV1) was 23.4% and the inhibition at 10 µM (K-562) was 39.9%. It also gave an inhibition at 10 µM (MDA-MB-468) of 52.4%, an inhibition at 10 µM (NCI-H322M) of 3.8% and an inhibition at 10 µM (NCI-H460) of 23.5%. It also gave an inhibition at 10 µM (NCI/ADR-RES) of 33.1%, an inhibition at 10 µM (OVCAR-4) of 33.2% and an inhibition at 10 µM (OVCAR-8) of 17.3%. It also gave an inhibition at 10 µM (SF-539) of 16.2%, an inhibition at 10 µM (SK-MEL-28) of 15.7% and an inhibition at 10 µM (SN12C) of 11.8%. The inhibition at 10 µM (SNB-19) was 17.7%, the inhibition at 10 µM (TK-10) was -0.8% and the inhibition at 10 µM (UACC-62) was 33.1%.
